In test [1] the test system is TNFα-induced JNK phosphorylation. Kind of test: Immunoblot of TNFα-induced JNK phosphorylation in WEHI-13VAR cells. It counts as cell-based. The note with it: TNFα with increasing peptide concentrations (0-20 μM); total JNK unchanged. The protocol: WEHI-13VAR cells were cultured in full growth media (RPMI, 5% FBS, 1% Pen/Strep) in 12-well plates to reach 80% confluence. TNFα (5 ng/mL final concentration) and varying concentrations of peptide inhibitor (0-6 μM) were pre-incubated in 0.5 mL of the growth medium for 30 min in the CO2 incubator. The mixture was then used to treat the cells at 37° C. and in the presence of 5% CO2. After 1.5 h, the solution was removed and the cells were washed with cold DPBS twice. The cells were lysed in 50 μL of lysis buffer (50 mM Tris, pH 7.4, 150 mM NaCl, 1% NP-40, and 5% glycerol) containing a protease inhibitor cocktail (Complete mini, Roche, product number 04693159001) and a phosphatase inhibitor cocktail (PhosSTOP, Roche, product number 04906845001). After incubation on ice for 30 min, the cell lysate was centrifuged at 15,000 rpm for 10 min in a microcentrifuge. An equal volume of 2×SDS-loading buffer was added to the supernatant. The total cellular proteins were separated by SDS-PAGE and transferred electrophoretically to a nitrocellulose membrane, which was subsequently immunoblotted using anti-JNK and anti-p-JNK Thr183/Tyr185 antibodies (both from Santa Cruz Biotechnology). The same samples were also separated on a different SDS-PAGE gel and stained by Coomassie brilliant blue to check the sample loading in all lanes. […]

The next test addresses T1, TNFα (Homo sapiens, UniProt P01375).
T1 construct: ybbR tag (13 aa) (N); made in house; host or cells: Escherichia coli
Kind of test: Fluorescence anisotropy (FA) binding of fluorescently labeled bicyclic peptides to TNFα. As to conditions: labeled at free N-terminal amine with 6-carboxyfluorescein. On the procedure: FITC-labeled bicyclic peptide (50 or 100 nM) were incubated with varying concentrations of TNFα (0-5 μM) in 30 mM HEPES, pH 7.4, 150 mM NaCl, and 2 mM magnesium acetate for 2 h. The FA values were measured on a Molecular Devices Spectramax M5 spectrofluorimeter, with excitation and emission wavelengths at 485 and 525 nm, respectively. Equilibrium dissociation constants (KD) were determined by plotting the FA values as a function of TNFα concentration and fitting the data to the following equation
[formula] where Y is the measured anisotropy at a given TNFα concentration x; L is the bicyclic peptide concentration; Qb/Qf is the correction fact for dye-protein interaction; Amax is the maximum anisotropy when all the peptides are bound to TNFα, while Amin is the minimum anisotropy. Competition experiments were performed by incubating 100 nM Asn-Asn-Asn-Lys(FITC)-labeled anticachexin C1 (Table 1), 2 μM of TNFα, and varying concentrations of unlabeled competitor peptide (0-20 μM) in the above buffer for 2 h. The FA values were plotted against the competitor peptide concentration to determine the IC50 values.
To identify residues significant for TNFα binding, each residue of anticachexin C1 (other than D-alanine at position-3, L-lysine at position-4, and L-2,3-diaminopropionic acid (Dap) at position-10) was individually replaced with an alanine (or D-alanine). To facilitate binding analysis by fluorescence anisotropy (FA), a tetrapeptide NNNK (SEQ ID NO: 1) was added to the C-terminus of each bicyclic peptide and the lysine side chain was labeled with fluorescein isothiocyanate (FITC) during solid-phase synthesis (Scheme 1). The three asparagine residues were added to improve the aqueous solubility of the bicyclic peptides. The bicyclic peptide was prepared by first synthesizing the full-length linear sequence on Rink amide resin using standard Fmoc/HBTU chemistry. The side chains of the two internal cyclization residues, L-lysine and Dap, were protected with monomethoxytrityl (Mmt) groups, whereas the C-terminal lysine was protected with an allyloxycarbonyl (Alloc) group. After removal of the N-terminal Fmoc group, a trimesic acid was coupled to the N-terminal amine using HBTU as the coupling agent. Next, the Mmt groups were selectively removed from the Lys and Dap side chains by 2% TFA and the peptide was cyclized by treatment with (benzotriazol-1-yloxy)tripyrrolidinophosphonium hexafluorophosphate (PyBOP). The Alloc group on the C-terminal lysine side chain was removed by treatment with Pd(PPh3)4 and the bicyclic peptide was selectively labeled at the C-terminal lysine by treating the resin with FITC. […] On the other hand, phenylglycine (Phg)-1 and glycine-7 play more minor roles in binding.
In general terms: Polarisation of emitted light reports the rotation of a fluorescent probe.

Consider `CC(=O)[C@@H]1CCCN(C(=O)[C@@H](Cc2c[nH]cn2)NC(=O)C(N)C(C)C)C1` (some centres unmarked) [Compound C1-74-2], for which the p-JNK level entry in test [1] is given as “decreased with the C1-74-2 concentration”. Further, at TNFα, the Kd was found to be 40 ± 7 nM.

In general, Kd refers to the free concentration of one partner at which half of the binding sites on the other are occupied at equilibrium, for simple one-to-one binding.

The record behind these values is patent publication US10913773B2, “Bicyclic peptidyl inhibitor of tumor necrosis factor-alpha” (Ohio State Innovation Foundation, priority 2016, dated 2021).
